According to ChEMBL document CHEMBL3108726, “Sorbicatechols A and B, antiviral sorbicillinoids from the marine-derived fungus Penicillium chrysogenum PJX-17” (J Nat Prod, 2014):

Each molecule was assayed on Influenza A virus (assay: Antiviral activity against Influenza A virus (A/Puerto Rico/8/34(H1N1)) infected in MDCK cells assessed as inhibition of virus-induced cytopathic effect after 48 hrs by crystal violet staining technique). Conditions: A/Puerto Rico/8/1934(H1N1).
Type: functional, organism-based

Compound	IC50
C/C=C/C=C/C(O)=C1/C(=O)[C@]2(C)C(=O)[C@@](C)(O)[C@H]1C[C@H]2c1ccc(O)c(OC)c1	113 µM
NC(=O)c1ncn([C@@H]2O[C@H](CO)[C@@H](O)[C@H]2O)n1 [RIBAVIRIN]	84 µM
C/C=C/C=C/C(O)=C1/C(=O)[C@]2(C)C(=O)[C@@](C)(O)[C@H]1C[C@@H]2c1ccc(O)c(OC)c1	85 µM
